Measured values from PubChem BioAssay (NCI).
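Method: 48-hour compound exposure of cells in 96-well plates, five concentrations, linear interpolation of endpoints. TGI marks complete inhibition of growth.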

Legend:
Assay in all cases: NCI anticancer screen, dose series, 48 h
LXFL 529 NSCLC = system: LXFL 529 NSCLC
MALME-3M melanoma = system: MALME-3M melanoma
HOP-18 NSCLC = system: HOP-18 NSCLC
SF-539 CNS = system: SF-539 CNS
SNB-78 CNS = system: SNB-78 CNS
DLD-1 colon = system: DLD-1 colon
DMS 273 small cell lung = system: DMS 273 small cell lung
M19-MEL melanoma = system: M19-MEL melanoma
OVCAR-3 ovarian = system: OVCAR-3 ovarian
XF 498 CNS = system: XF 498 CNS
MDA-MB-435 = system: MDA-MB-435
HCC-2998 colon = system: HCC-2998 colon
T-47D breast = system: T-47D breast
BT-549 breast = system: BT-549 breast
MCF7 breast = system: MCF7 breast
HOP-62 NSCLC = system: HOP-62 NSCLC
SW-620 colon = system: SW-620 colon
MDA-MB-231 breast = system: MDA-MB-231 breast
NCI/ADR-RES ovarian = system: NCI/ADR-RES ovarian
SR leukemia = system: SR leukemia

Row | Compound | TGI (LXFL 529 NSCLC) | TGI (MALME-3M melanoma) | TGI (HOP-18 NSCLC) | TGI (SF-539 CNS) | TGI (SNB-78 CNS) | TGI (DLD-1 colon) | TGI (DMS 273 small cell lung) | TGI (M19-MEL melanoma) | TGI (OVCAR-3 ovarian) | TGI (XF 498 CNS) | TGI (MDA-MB-435) | TGI (HCC-2998 colon) | TGI (T-47D breast) | TGI (BT-549 breast) | TGI (MCF7 breast) | TGI (HOP-62 NSCLC) | TGI (SW-620 colon) | TGI (MDA-MB-231 breast) | TGI (NCI/ADR-RES ovarian) | TGI (SR leukemia)
1 | CC1(C)OP23(NC(=O)OC2(C(F)(F)F)c2ccccc2O3)OC1(C)C (centres undefined) | > 100 µM | > 100 µM | > 100 µM | > 100 µM | > 100 µM | > 100 µM | > 100 µM | > 100 µM | > 100 µM | > 100 µM | – | – | – | – | – | – | – | – | – | –
2 | COc1ccc2[nH]c(C(=O)N3CC(CCl)c4ccc(N)cc43)cc2c1 (centres undefined) | – | 0.302 µM | – | 1.7 µM | – | – | – | – | – | – | 0.405 µM | 0.383 µM | > 100 µM | 6.97 µM | > 39.1 µM | > 100 µM | > 100 µM | 0.545 µM | 2.28 µM | > 100 µM
3 | O=C(CCCn1cnc([N+](=O)[O-])n1)NCCn1ccnc1[N+](=O)[O-] | – | – | – | – | – | – | – | – | > 100 µM | – | – | – | > 100 µM | > 100 µM | > 100 µM | > 100 µM | > 100 µM | – | – | > 100 µM
